# Laboratory results published in PubChem BioAssay AID270 (DTP/NCI, 2004).
# Where “and” joins values, the source holds several entries; their conditions need not be identical. Identical values can stand only once. Records with an inconclusive call do not appear.
# Test system: BDF1 mice, s.c. Lewis lung carcinoma, T/C %
# Assay: NCI In Vivo Anticancer Drug Screen. Data for tumor model Lewis Lung Carcinoma (subcutaneous) in B6D2F1 (BDF1) mice
# Method in brief: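 First, mice carry a transplantable tumor. Next, groups receive either compound or vehicle. Finally, survival or tumor dimensions in the dosed animals are divided by the corresponding control figure.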
# [1] = endpoint: mean tumor weight, dose: 125.0 mg/kg/injection, schedule: Q01DX011 (ip), vehicle: other, higher = larger tumour
smiles,measurement,setting,value
C1CC[N-]CC1.C1CC[N-]CC1.C1CC[N-]CC1.[Cl][Rh]([Cl])[Cl],T/C,"endpoint: median survival time, dose: 4.0 mg/kg/injection, schedule: Q01DX009 (ip), vehicle: saline, higher = longer survival",96 % of control
same,T/C,"endpoint: median survival time, dose: 8.0 mg/kg/injection, schedule: Q01DX009 (ip), vehicle: saline, higher = longer survival",93 % of control
same,T/C,"endpoint: median survival time, dose: 16.0 mg/kg/injection, schedule: Q01DX009 (ip), vehicle: saline, higher = longer survival",103 % of control
same,T/C,"endpoint: median survival time, dose: 32.0 mg/kg/injection, schedule: Q01DX009 (ip), vehicle: saline, higher = longer survival",98 % of control
same,T/C,"endpoint: median survival time, dose: 64.0 mg/kg/injection, schedule: Q01DX009 (ip), vehicle: saline, higher = longer survival",92 % of control
COc1cccc2c1C(=O)c1c(O)c3c(c(O)c1C2=O)C[C@@](O)(C(C)=O)C[C@@H]3OC1CC(N)C(O)C(C)O1 (stereo partly drawn),T/C,"endpoint: mean tumor weight, dose: 0.6 mg/kg/injection, schedule: Q01DX011 (ip), vehicle: saline, higher = larger tumour",85 % of control
same,T/C,"endpoint: mean tumor weight, dose: 1.0 mg/kg/injection, schedule: Q01DX011 (sc), vehicle: steriod suspending solution, higher = larger tumour",116 % of control
same,T/C,"endpoint: mean tumor weight, dose: 1.2 mg/kg/injection, schedule: Q01DX011 (ip), vehicle: saline, higher = larger tumour",89 % of control
same,T/C,"endpoint: mean tumor weight, dose: 1.8 mg/kg/injection, schedule: Q01DX011 (ip), vehicle: saline, higher = larger tumour",69 % of control and 81 % of control
same,T/C,"endpoint: mean tumor weight, dose: 2.7 mg/kg/injection, schedule: Q01DX011 (ip), vehicle: saline, higher = larger tumour",56 % of control
same,T/C,"endpoint: mean tumor weight, dose: 5.0 mg/kg/injection, schedule: Q01DX011 (sc), vehicle: steriod suspending solution, higher = larger tumour",81 % of control
same,T/C,"endpoint: median survival time, dose: 0.12 mg/kg/injection, schedule: Q01DX009 (ip), vehicle: saline, higher = longer survival",101 % of control and 104 % of control and 110 % of control
same,T/C,"endpoint: median survival time, dose: 125.0 micrograms/kg/injection, schedule: Q01DX009 (ip), vehicle: saline, higher = longer survival",92 % of control
same,T/C,"endpoint: median survival time, dose: 500.0 micrograms/kg/injection, schedule: Q01DX009 (ip), vehicle: saline, higher = longer survival",100 % of control
same,T/C,"endpoint: median survival time, dose: 1000.0 micrograms/kg/injection, schedule: Q01DX009 (ip), vehicle: saline, higher = longer survival",90 % of control
same,T/C,"endpoint: median survival time, dose: 2000.0 micrograms/kg/injection, schedule: Q01DX009 (ip), vehicle: saline, higher = longer survival",97 % of control
Nc1ccc(O)cc1,T/C,"endpoint: mean tumor weight, dose: 37.5 mg/kg/injection, schedule: Q01DX011 (ip), vehicle: saline, higher = larger tumour",96 % of control
same,T/C,"endpoint: mean tumor weight, dose: 300.0 mg/kg/injection, schedule: Q01DX011 (ip), vehicle: saline, higher = larger tumour",26 % of control
C[C@]12C=CC(=O)C=C1CC[C@@H]1[C@@H]2[C@@H](O)C[C@@]2(C)[C@H]1CC[C@]2(O)C(=O)COC(=O)C1CCCC1,T/C,"endpoint: mean tumor weight, dose: 9.0 mg/kg/injection, schedule: Q01DX011 (sc), vehicle: steriod suspending solution, higher = larger tumour",68 % of control
same,T/C,"endpoint: mean tumor weight, dose: 13.0 mg/kg/injection, schedule: Q01DX011 (sc), vehicle: steriod suspending solution, higher = larger tumour",51 % of control
same,T/C,"endpoint: mean tumor weight, dose: 20.0 mg/kg/injection, schedule: Q01DX011 (sc), vehicle: steriod suspending solution, higher = larger tumour",77 % of control
same,T/C,"endpoint: mean tumor weight, dose: 30.0 mg/kg/injection, schedule: Q01DX011 (sc), vehicle: steriod suspending solution, higher = larger tumour",52 % of control
O=C(NO)c1ccccc1O,T/C,"endpoint: median survival time, dose: 6.25 mg/kg/injection, schedule: Q01DX009 (ip), vehicle: saline, higher = longer survival",109 % of control
same,T/C,"endpoint: median survival time, dose: 12.5 mg/kg/injection, schedule: Q01DX009 (ip), vehicle: saline, higher = longer survival",106 % of control
same,T/C,"endpoint: median survival time, dose: 25.0 mg/kg/injection, schedule: Q01DX009 (ip), vehicle: saline, higher = longer survival",108 % of control
same,T/C,"endpoint: median survival time, dose: 50.0 mg/kg/injection, schedule: Q01DX009 (ip), vehicle: saline, higher = longer survival",103 % of control
same,T/C,"endpoint: median survival time, dose: 400.0 mg/kg/injection, schedule: Q01DX009 (ip), vehicle: saline with Tween-80, higher = longer survival",113 % of control
CCCC(Sc1nc(N)nc2nc[nH]c12)C(=O)O (stereo not drawn),T/C,"endpoint: mean tumor weight, dose: 5.0 mg/kg/injection, schedule: Q01DX011 (ip), vehicle: other, higher = larger tumour",115 % of control
same,T/C,"endpoint: mean tumor weight, dose: 10.0 mg/kg/injection, schedule: Q01DX011 (ip), vehicle: other, higher = larger tumour",58 % of control
same,T/C,"endpoint: mean tumor weight, dose: 20.0 mg/kg/injection, schedule: Q01DX011 (ip), vehicle: other, higher = larger tumour",17 % of control
same,T/C,"endpoint: mean tumor weight, dose: 40.0 mg/kg/injection, schedule: Q01DX011 (ip), vehicle: other, higher = larger tumour",49 % of control and 69 % of control
same,T/C,"endpoint: mean tumor weight, dose: 160.0 mg/kg/injection, schedule: Q01DX011 (ip), vehicle: other, higher = larger tumour",64 % of control
same,T/C,"endpoint: mean tumor weight, dose: 320.0 mg/kg/injection, schedule: Q01DX011 (ip), vehicle: other, higher = larger tumour",50 % of control and 69 % of control
same,T/C,"endpoint: mean tumor weight, dose: 640.0 mg/kg/injection, schedule: Q01DX011 (ip), vehicle: other, higher = larger tumour",48 % of control
COc1ccc2c(c1)CC[C@@H]1[C@@H]2CC[C@]2(C)/C(=N\O)CC[C@@H]12,T/C,"endpoint: mean tumor weight, dose: 50.0 mg/kg/injection, schedule: Q01DX011 (sc), vehicle: steriod suspending solution, higher = larger tumour",43 % of control
same,T/C,"endpoint: mean tumor weight, dose: 115.0 mg/kg/injection, schedule: Q01DX011 (sc), vehicle: steriod suspending solution, higher = larger tumour",53 % of control
same,T/C,"endpoint: mean tumor weight, dose: 170.0 mg/kg/injection, schedule: Q01DX011 (sc), vehicle: steriod suspending solution, higher = larger tumour",45 % of control
same,T/C,"endpoint: mean tumor weight, dose: 200.0 mg/kg/injection, schedule: Q01DX011 (sc), vehicle: steriod suspending solution, higher = larger tumour",53 % of control
same,T/C,"endpoint: mean tumor weight, dose: 250.0 mg/kg/injection, schedule: Q01DX011 (sc), vehicle: steriod suspending solution, higher = larger tumour",36 % of control
same,T/C,"endpoint: mean tumor weight, dose: 375.0 mg/kg/injection, schedule: Q01DX011 (sc), vehicle: steriod suspending solution, higher = larger tumour",43 % of control
same,T/C,"endpoint: mean tumor weight, dose: 400.0 mg/kg/injection, schedule: Q01DX011 (sc), vehicle: steriod suspending solution, higher = larger tumour",50 % of control
same,T/C,"endpoint: mean tumor weight, dose: 600.0 mg/kg/injection, schedule: Q01DX011 (sc), vehicle: steriod suspending solution, higher = larger tumour",24 % of control
N=C(N)NC(=N)Nc1ccc(NC(=O)Nc2ccc(Nc3c4ccccc4nc4cc([N+](=O)[O-])ccc34)cc2)cc1,T/C,"endpoint: median survival time, dose: 1.56 mg/kg/injection, schedule: Q01DX009 (ip), vehicle: water, higher = longer survival",111 % of control
same,T/C,"endpoint: median survival time, dose: 6.25 mg/kg/injection, schedule: Q01DX009 (ip), vehicle: water, higher = longer survival",108 % of control
same,T/C,"endpoint: median survival time, dose: 12.5 mg/kg/injection, schedule: Q01DX009 (ip), vehicle: water, higher = longer survival",112 % of control
same,T/C,"endpoint: median survival time, dose: 25.0 mg/kg/injection, schedule: Q01DX009 (ip), vehicle: water, higher = longer survival",103 % of control
same,T/C,"endpoint: median survival time, dose: 50.0 mg/kg/injection, schedule: Q01DX009 (ip), vehicle: water, higher = longer survival",112 % of control
N#C/C(=C\c1ccncc1)c1csc2ccccc12,T/C,"endpoint: median survival time, dose: 50.0 mg/kg/injection, schedule: Q01DX009 (ip), vehicle: Klucel (hydroxypropylcellulose) (HPC), higher = longer survival",119 % of control
same,T/C,"endpoint: median survival time, dose: 100.0 mg/kg/injection, schedule: Q01DX009 (ip), vehicle: Klucel (hydroxypropylcellulose) (HPC), higher = longer survival",97 % of control
same,T/C,"endpoint: median survival time, dose: 400.0 mg/kg/injection, schedule: Q01DX009 (ip), vehicle: Klucel (hydroxypropylcellulose) (HPC), higher = longer survival",110 % of control
O=[N+]([O-])c1ccccc1CSc1ncnc2nc[nH]c12,T/C,"endpoint: mean tumor weight, dose: 15.6 mg/kg/injection, schedule: Q01DX011 (ip), vehicle: other, higher = larger tumour",38 % of control
same,T/C,"endpoint: mean tumor weight, dose: 31.3 mg/kg/injection, schedule: Q01DX011 (ip), vehicle: other, higher = larger tumour",86 % of control
same,T/C,"endpoint: mean tumor weight, dose: 62.5 mg/kg/injection, schedule: Q01DX011 (ip), vehicle: other, higher = larger tumour",82 % of control
same,T/C,[1],41 % of control
CC(C)(C)C(=O)O,T/C,"endpoint: mean tumor weight, dose: 37.0 mg/kg/injection, schedule: Q01DX011 (ip), vehicle: other, higher = larger tumour",75 % of control
same,T/C,"endpoint: mean tumor weight, dose: 83.0 mg/kg/injection, schedule: Q01DX011 (ip), vehicle: other, higher = larger tumour",159 % of control
same,T/C,[1],92 % of control
Nc1nc(=O)n(C2CC(O)C(CO)O2)cc1Br (stereo not drawn),T/C,"endpoint: mean tumor weight, dose: 50.0 mg/kg/injection, schedule: Q01DX011 (ip), vehicle: carboxymethylcellulose (CMC), higher = larger tumour",65 % of control
same,T/C,"endpoint: mean tumor weight, dose: 100.0 mg/kg/injection, schedule: Q01DX011 (ip), vehicle: carboxymethylcellulose (CMC), higher = larger tumour",55 % of control
same,T/C,"endpoint: mean tumor weight, dose: 200.0 mg/kg/injection, schedule: Q01DX011 (ip), vehicle: carboxymethylcellulose (CMC), higher = larger tumour",64 % of control
same,T/C,"endpoint: mean tumor weight, dose: 400.0 mg/kg/injection, schedule: Q01DX011 (ip), vehicle: carboxymethylcellulose (CMC), higher = larger tumour",88 % of control
same,T/C,"endpoint: mean tumor weight, dose: 800.0 mg/kg/injection, schedule: Q01DX011 (ip), vehicle: carboxymethylcellulose (CMC), higher = larger tumour",34 % of control
c1ccc2c3c(ccc2c1)Sc1ccc2ccccc2c1N3,T/C,"endpoint: mean tumor weight, dose: 400.0 mg/kg/injection, schedule: Q01DX011 (ip), vehicle: other, higher = larger tumour",78 % of control
same,T/C,"endpoint: mean tumor weight, dose: 600.0 mg/kg/injection, schedule: Q01DX011 (ip), vehicle: other, higher = larger tumour",57 % of control
same,T/C,"endpoint: mean tumor weight, dose: 800.0 mg/kg/injection, schedule: Q01DX011 (ip), vehicle: other, higher = larger tumour",57 % of control
COc1cc(C2c3cc4c(cc3CC3COC(=O)C32)OCO4)cc(OC)c1O (stereo not drawn),T/C,"endpoint: median survival time, dose: 0.5 mg/kg/injection, schedule: Q01DX009 (ip), vehicle: saline with Tween-80, higher = longer survival",104 % of control
same,T/C,"endpoint: median survival time, dose: 1.0 mg/kg/injection, schedule: Q01DX009 (ip), vehicle: saline with Tween-80, higher = longer survival",101 % of control
same,T/C,"endpoint: median survival time, dose: 2.0 mg/kg/injection, schedule: Q01DX009 (ip), vehicle: saline with Tween-80, higher = longer survival",107 % of control
